Test results taken from patent publication US20100330677A1, “Improved Reprogramming of Mammalian Cells, and Cells Obtained” (Cambridge Enterprise Limited, priority 2008, published 2010).

Key:
[1] = test system: Oct4-GFP expressing I-iPS cells; assay: Oct4-GFP reporter activity of partially reprogrammed cells cultured in Fgf2 and activin, with activin receptor inhibitor; assay type: cell-based, mouse; details: serum free
Source text: Culture of FACS purified GFP expressing incomplete (I) iPS cells in Fgf2 and activin (left) and subsequently on addition of activin receptor inhibitor SB431542 (right). To further investigate the phenotype of these partially reprogrammed cells we assessed Oct4 reporter activity in different culture environments. In conventional ES cell culture using the self renewal cytokine Leukaemia Inhibitory Factor (LIF) and serum in presence or absence of feeders, Oct4-GFP expression was not maintained. In contrast, reporter expression stabilized when cells were cultured serum free in the presence of Fgf2 and activin (FIG. 2). These are conditions used for the propagation of EpiSCs derived from post-implantation embryos (Brons et al., 2007; Tesar et al., 2007). […] We conclude that NS cells are efficiently converted by the reprogramming factors into a heterogeneous cell population with certain properties of EpiSCs rather than ES cells.

pre-iPS cells = assay: Adding inhibitors to pre-iPS cells in the presence of foetal calf serum plus LIF; assay type: cell-based, mouse; details: for effect on Oct4-GFP activation: foetal calf serum plus LIF, inhibitor alone
Source text: We also examined the effect of adding inhibitors in the presence of foetal calf serum plus LIF. The addition of 2i induced stable activation of Oct4-GFP in around 10% of emerging colonies. […] The reduced frequency compared with serum-free 2i culture may be because the ability of PD0325901 to suppress Erk activation is counteracted by serum factors.

| SMILES | effect of inhibitor on Oct4-GFP reporter activity and cells [1] | effect on Oct4-GFP activation (pre-iPS cells) | expression of Nanog and Rex1 (pre-iPS cells; cells expanded in serum and LIF) |
| --- | --- | --- | --- |
| NC(=O)c1ccc(-c2nc(-c3ccc4c(c3)OCO4)c(-c3ccccn3)[nH]2)cc1 [SB43154212, SB431542] | loss of reporter activity, cell death and differentiation |  |  |
| Cc1c[nH]c(-c2cnc(NCCNc3ccc(C#N)cn3)nc2-c2ccc(Cl)cc2Cl)n1 [GSK3 inhibitor, CHIR99021] |  | no discernible effect |  |
| O=C(NOC[C@H](O)CO)c1ccc(F)c(F)c1Nc1ccc(I)cc1F [MEK inhibitor, PD0325901] |  | comparable to 2i | acquired expression of Nanog and Rex1 |
